ChEMBL document CHEMBL2440076, “New triarylpyrazoles as broad-spectrum anticancer agents: design, synthesis, and biological evaluation” (Eur J Med Chem, 2013)

What was measured:
Type in all cases: functional
A498 [1] = assay: Growth inhibition of human A498 cells assessed as cell growth at 5X10'-6 M after 48 hrs by sulforhodamine B assay; details: A498, 48 h, read-out: Activity
M14 = assay: Growth inhibition of human M14 cells assessed as cell growth at 5X10'-5 M after 48 hrs by sulforhodamine B assay; details: M14, 48 h, read-out: Activity
[2] = Growth inhibition of human Hs 578T cells assessed as cell growth at 5X10'-5 M after 48 hrs by sulforhodamine B assay; details: read-out: Activity
HOP-92 [3] = assay: Growth inhibition of human HOP92 cells assessed as cell growth at 5X10'-8 M after 48 hrs by sulforhodamine B assay; details: HOP-92, 48 h, read-out: Activity
NCI-H522 = assay: Growth inhibition of human NCI-H522 cells assessed as cell growth at 5X10'-9 M after 48 hrs by sulforhodamine B assay; details: NCI-H522, 48 h, read-out: Activity
HOP-92 [4] = assay: Growth inhibition of human HOP92 cells assessed as cell growth at 5X10'-5 M after 48 hrs by sulforhodamine B assay; details: HOP-92, 48 h, read-out: Activity
ACHN = assay: Growth inhibition of human ACHN cells assessed as cell growth at 5X10'-9 M after 48 hrs by sulforhodamine B assay; details: read-out: Activity
BT-549 = assay: Growth inhibition of human BT549 cells assessed as cell growth at 5X10'-7 M after 48 hrs by sulforhodamine B assay; details: BT-549, 48 h, read-out: Activity
K562 [5] = assay: Growth inhibition of human K562 cells assessed as cell growth at 5X10'-9 M after 48 hrs by sulforhodamine B assay; details: K562, 48 h, read-out: Activity
OVCAR-5 [6] = assay: Growth inhibition of human OVCAR5 cells assessed as cell growth at 5X10'-8 M after 48 hrs by sulforhodamine B assay; details: OVCAR-5, 48 h, read-out: Activity
A498 [7] = assay: Growth inhibition of human A498 cells assessed as cell growth at 5X10'-8 M after 48 hrs by sulforhodamine B assay; details: A498, 48 h, read-out: Activity
NCI-H322M [8] = assay: Growth inhibition of human NCI-H322M cells assessed as cell growth at 5X10'-6 M after 48 hrs by sulforhodamine B assay; details: read-out: Activity
HOP-62 = assay: Growth inhibition of human HOP62 cells assessed as cell growth at 5X10'-6 M after 48 hrs by sulforhodamine B assay; details: HOP-62, 48 h, read-out: Activity
HCT-116 = assay: Growth inhibition of human HCT116 cells assessed as cell growth at 5X10'-6 M after 48 hrs by sulforhodamine B assay; details: HCT-116, 48 h, read-out: Activity
SK-OV-3 = assay: Growth inhibition of human SKOV3 cells assessed as cell growth at 5X10'-8 M after 48 hrs by sulforhodamine B assay; details: SK-OV-3, 48 h, read-out: Activity
UACC-62 = assay: Growth inhibition of human UACC62 cells assessed as cell growth at 5X10'-6 M after 48 hrs by sulforhodamine B assay; details: UACC-62, 48 h, read-out: Activity
UO-31 = assay: Growth inhibition of human UO31 cells assessed as cell growth at 5X10'-7 M after 48 hrs by sulforhodamine B assay; details: UO-31, 48 h, read-out: Activity
SK-MEL-5 = assay: Growth inhibition of human SK-MEL-5 cells assessed as cell growth at 5X10'-8 M after 48 hrs by sulforhodamine B assay; details: SK-MEL-5, 48 h, read-out: Activity
NCI-H322M [9] = assay: Growth inhibition of human NCI-H322M cells assessed as cell growth at 5X10'-5 M after 48 hrs by sulforhodamine B assay; details: read-out: Activity
SF-539 = assay: Growth inhibition of human SF539 cells assessed as cell growth at 5X10'-7 M after 48 hrs by sulforhodamine B assay; details: SF-539, 48 h, read-out: Activity
[10] = Growth inhibition of human Hs 578T cells assessed as cell growth at 5X10'-8 M after 48 hrs by sulforhodamine B assay; details: read-out: Activity
K562 [11] = assay: Growth inhibition of human K562 cells assessed as cell growth at 5X10'-6 M after 48 hrs by sulforhodamine B assay; details: K562, 48 h, read-out: Activity
SF-295 = assay: Growth inhibition of human SF295 cells assessed as cell growth at 5X10'-8 M after 48 hrs by sulforhodamine B assay; details: SF-295, 48 h, read-out: Activity
PC-3 = assay: Growth inhibition of human PC3 cells assessed as cell growth at 5X10'-9 M after 48 hrs by sulforhodamine B assay; details: PC-3, 48 h, read-out: Activity
U-251 = assay: Growth inhibition of human U251 cells assessed as cell growth at 5X10'-6 M after 48 hrs by sulforhodamine B assay; details: U-251, 48 h, read-out: Activity
OVCAR-5 [12] = assay: Growth inhibition of human OVCAR5 cells assessed as cell growth at 5X10'-7 M after 48 hrs by sulforhodamine B assay; details: OVCAR-5, 48 h, read-out: Activity
KM12 = assay: Growth inhibition of human KM12 cells assessed as cell growth at 5X10'-6 M after 48 hrs by sulforhodamine B assay; details: KM12, 48 h, read-out: Activity
OVCAR-3 = assay: Growth inhibition of human OVCAR3 cells assessed as cell growth at 5X10'-7 M after 48 hrs by sulforhodamine B assay; details: OVCAR-3, 48 h, read-out: Activity
HL-60(TB) [13] = assay: Growth inhibition of human HL-60(TB) cells assessed as cell growth at 5X10'-7 M after 48 hrs by sulforhodamine B assay; details: HL-60, 48 h, read-out: Activity
SR = assay: Growth inhibition of human SR cells assessed as cell growth at 5X10'-8 M after 48 hrs by sulforhodamine B assay; details: read-out: Activity
HOP-92 [14] = assay: Growth inhibition of human HOP92 cells assessed as cell growth at 5X10'-7 M after 48 hrs by sulforhodamine B assay; details: HOP-92, 48 h, read-out: Activity
IGROV-1 = assay: Growth inhibition of human IGROV1 cells assessed as cell growth at 5X10'-5 M after 48 hrs by sulforhodamine B assay; details: IGROV-1, 48 h, read-out: Activity
NCI-H23 = assay: Growth inhibition of human NCI-H23 cells assessed as cell growth at 5X10'-8 M after 48 hrs by sulforhodamine B assay; details: NCI-H23, 48 h, read-out: Activity
T47D = assay: Growth inhibition of human T47D cells assessed as cell growth at 5X10'-6 M after 48 hrs by sulforhodamine B assay; details: read-out: Activity
HL-60(TB) [15] = assay: Growth inhibition of human HL-60(TB) cells assessed as cell growth at 5X10'-8 M after 48 hrs by sulforhodamine B assay; details: HL-60, 48 h, read-out: Activity
OVCAR-5 [16] = assay: Growth inhibition of human OVCAR5 cells assessed as cell growth at 5X10'-6 M after 48 hrs by sulforhodamine B assay; details: OVCAR-5, 48 h, read-out: Activity
NCI-H226 = assay: Growth inhibition of human NCI-H226 cells assessed as cell growth at 5X10'-8 M after 48 hrs by sulforhodamine B assay; details: NCI-H226, 48 h, read-out: Activity

Row | SMILES | growth at 5 µM (A498 [1]) [%] | growth at 50 µM (M14) [%] | growth at 50 µM [2] [%] | growth at 0.05 µM (HOP-92 [3]) [%] | growth at 0.005 µM (NCI-H522) [%] | growth at 50 µM (HOP-92 [4]) [%] | growth at 0.005 µM (ACHN) [%] | growth at 0.5 µM (BT-549) [%] | growth at 0.005 µM (K562 [5]) [%] | growth at 0.05 µM (OVCAR-5 [6]) [%] | growth at 0.05 µM (A498 [7]) [%] | growth at 5 µM (NCI-H322M [8]) [%] | growth at 5 µM (HOP-62) [%] | growth at 5 µM (HCT-116) [%] | growth at 0.05 µM (SK-OV-3) [%] | growth at 5 µM (UACC-62) [%] | growth at 0.5 µM (UO-31) [%] | growth at 0.05 µM (SK-MEL-5) [%] | growth at 50 µM (NCI-H322M [9]) [%] | growth at 0.5 µM (SF-539) [%] | also measured
1 | COc1cc(-c2nn(-c3cccc(NC(=O)c4cccc(C(F)(F)F)c4)c3)cc2-c2ccncc2)ccc1Cl | -21 | 12 | 13 | 81 | 95 | -22 | 103 | 102 | 94 | 90 | 80 | 52 | 47 | 12 | 103 | 27 | 62 | 97 | 46 | 81 | growth at 0.05 µM [10]: 91%; growth at 5 µM (K562 [11]): 9%; growth at 0.05 µM (SF-295): 95%; growth at 0.005 µM (PC-3): 98%; growth at 5 µM (U-251): 14%; growth at 0.5 µM (OVCAR-5 [12]): 85%; growth at 5 µM (KM12): 14%; growth at 0.5 µM (OVCAR-3): 98%; growth at 0.5 µM (HL-60(TB) [13]): 103%; growth at 0.05 µM (SR): 98%; growth at 0.5 µM (HOP-92 [14]): 53%; growth at 50 µM (IGROV-1): 5%; growth at 0.05 µM (NCI-H23): 90%; growth at 5 µM (T47D): 36%; growth at 0.05 µM (HL-60(TB) [15]): 92%; growth at 5 µM (OVCAR-5 [16]): 46%; growth at 0.05 µM (NCI-H226): 93%
2 | O=C(Nc1cccc(-n2cc(-c3ccncc3)c(-c3ccc(Cl)c(O)c3)n2)c1)Nc1cc(C(F)(F)F)cc(C(F)(F)F)c1 | -4 | -86 | -40 | 75 | 101 | -89 | 103 | 109 | 105 | 89 | 86 | 3 | -64 | -87 | 102 | -38 | 62 | 92 | -75 | 82 | growth at 0.05 µM [10]: 94%; growth at 5 µM (K562 [11]): -5%; growth at 0.05 µM (SF-295): 90%; growth at 0.005 µM (PC-3): 90%; growth at 5 µM (U-251): -83%; growth at 0.5 µM (OVCAR-5 [12]): 83%; growth at 5 µM (KM12): -60%; growth at 0.5 µM (OVCAR-3): 43%; growth at 0.5 µM (HL-60(TB) [13]): 93%; growth at 0.05 µM (SR): 102%; growth at 0.5 µM (HOP-92 [14]): 45%; growth at 50 µM (IGROV-1): -55%; growth at 0.05 µM (NCI-H23): 99%; growth at 5 µM (T47D): 20%; growth at 0.05 µM (HL-60(TB) [15]): 122%; growth at 5 µM (OVCAR-5 [16]): -54%; growth at 0.05 µM (NCI-H226): 85%
3 | O=C(Nc1cccc(-n2cc(-c3ccncc3)c(-c3ccc(Cl)c(O)c3)n2)c1)c1ccc(N2CCOCC2)c(C(F)(F)F)c1 | 92 | -50 | 8 | 78 | 93 | -15 | 102 | 111 | 96 | 97 | 83 | 76 | 67 | 35 | 98 | 39 | 112 | 93 | 56 | 73 | growth at 0.05 µM [10]: 87%; growth at 5 µM (K562 [11]): 11%; growth at 0.05 µM (SF-295): 98%; growth at 0.005 µM (PC-3): 100%; growth at 5 µM (U-251): 16%; growth at 0.5 µM (OVCAR-5 [12]): 98%; growth at 5 µM (KM12): 25%; growth at 0.5 µM (OVCAR-3): 106%; growth at 0.5 µM (HL-60(TB) [13]): 130%; growth at 0.05 µM (SR): 99%; growth at 0.5 µM (HOP-92 [14]): 53%; growth at 50 µM (IGROV-1): 4%; growth at 0.05 µM (NCI-H23): 93%; growth at 5 µM (T47D): 84%; growth at 0.05 µM (HL-60(TB) [15]): 117%; growth at 5 µM (OVCAR-5 [16]): 111%; growth at 0.05 µM (NCI-H226): 95%
